Test results: ChEMBL document CHEMBL1134928, “Synthesis and evaluation of potent pyrrolidine H(3) antagonists” (Bioorg Med Chem Lett, 2002)

Assays:
[1] = molecular target: T1, Histamine H1 receptor (Homo sapiens, UniProt P35367); experiment: Binding affinity to the human Histamine H1 receptor
[2] = molecular target: T2, Histamine H3 receptor (Rattus norvegicus, UniProt Q9QYN8); experiment: Binding affinity against rat histamine H3 receptor
[3] = molecular target: T3, Histamine H2 receptor (Homo sapiens, UniProt P25021); experiment: Binding affinity to the human Histamine H2 receptor
T3 sequence (P25021 whole entry): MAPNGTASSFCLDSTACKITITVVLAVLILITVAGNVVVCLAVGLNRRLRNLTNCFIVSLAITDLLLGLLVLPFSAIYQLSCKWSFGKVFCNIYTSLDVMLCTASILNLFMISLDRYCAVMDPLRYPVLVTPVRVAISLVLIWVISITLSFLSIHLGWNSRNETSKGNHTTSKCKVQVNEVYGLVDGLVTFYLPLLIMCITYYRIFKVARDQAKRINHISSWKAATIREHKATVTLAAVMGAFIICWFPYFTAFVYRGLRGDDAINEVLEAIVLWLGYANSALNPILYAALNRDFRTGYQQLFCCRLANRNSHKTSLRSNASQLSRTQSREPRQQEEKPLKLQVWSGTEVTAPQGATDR

[4] = molecular target: T1, Histamine H1 receptor; experiment: Binding affinity towards human Histamine H1 receptor (For compound 11)
[5] = molecular target: T2, Histamine H3 receptor; experiment: Binding affinity towards rat Histamine H3 receptor (For compound 11)
[6] = molecular target: T3, Histamine H2 receptor; experiment: Binding affinity towards human Histamine H2 receptor (For compound 11)
[7] = molecular target: T2, Histamine H3 receptor; experiment: Binding affinity towards rats Histamine type 3 (H3) receptor

T2 sequence (Q9QYN8 whole entry): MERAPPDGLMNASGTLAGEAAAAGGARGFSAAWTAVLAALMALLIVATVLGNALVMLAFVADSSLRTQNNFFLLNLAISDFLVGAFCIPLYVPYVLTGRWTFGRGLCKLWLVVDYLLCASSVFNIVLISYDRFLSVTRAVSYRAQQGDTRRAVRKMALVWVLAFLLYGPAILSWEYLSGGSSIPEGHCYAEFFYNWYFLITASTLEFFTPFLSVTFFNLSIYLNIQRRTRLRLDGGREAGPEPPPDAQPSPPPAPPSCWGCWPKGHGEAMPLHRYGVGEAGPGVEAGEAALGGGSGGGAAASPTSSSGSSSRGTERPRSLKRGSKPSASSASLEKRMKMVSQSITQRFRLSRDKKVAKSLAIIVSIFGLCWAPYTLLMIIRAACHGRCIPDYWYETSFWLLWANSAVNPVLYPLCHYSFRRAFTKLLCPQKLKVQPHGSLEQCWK
T1 sequence (P35367 whole entry): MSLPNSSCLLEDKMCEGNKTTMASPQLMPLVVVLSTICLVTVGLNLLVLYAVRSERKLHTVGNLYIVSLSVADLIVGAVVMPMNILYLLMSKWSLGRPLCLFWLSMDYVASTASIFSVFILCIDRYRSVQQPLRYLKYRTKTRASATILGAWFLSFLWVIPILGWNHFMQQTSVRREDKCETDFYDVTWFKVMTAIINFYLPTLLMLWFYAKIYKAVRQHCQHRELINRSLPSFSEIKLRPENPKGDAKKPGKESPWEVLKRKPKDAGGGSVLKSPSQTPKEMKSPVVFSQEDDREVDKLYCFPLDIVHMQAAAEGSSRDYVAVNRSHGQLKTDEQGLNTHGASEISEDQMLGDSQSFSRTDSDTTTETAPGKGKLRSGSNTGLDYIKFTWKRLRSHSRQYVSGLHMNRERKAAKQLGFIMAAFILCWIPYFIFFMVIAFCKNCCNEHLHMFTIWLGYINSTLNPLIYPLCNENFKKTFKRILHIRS

Row | SMILES | Ki [1] [nM] | Ki [2] [nM] | Ki [3] [nM] | other results
1 | CC(=O)c1ccc(OCCCN2CC[C@H](NC(=O)c3csc(-c4cccnc4)n3)C2)cc1 | 11000 | 55 | 6200 | –
2 | N#Cc1cccc(S(=O)(=O)N[C@H]2CCN(CCCOc3ccc(C(=O)C4CC4)cc3)C2)c1 | 8900 | 2.8 | 900 | –
3 | CCS(=O)(=O)N1C[C@@H]2C[C@H]1CN2CCCOc1ccc(C(=O)C2CC2)cc1 | – | 120 | – | –
4 | O=C(c1ccc(OCCCN2CC[C@H](NS(=O)(=O)c3ccccc3Cl)C2)cc1)C1CC1 | 4500 | – | 1000 | –
5 | CC(=O)c1ccc(OCCCN2CC[C@H](NC(=O)[C@@H](CO)NC(=O)OC(C)(C)C)C2)cc1 | 80000 | 310 | 100000 | –
6 | O=C(c1ccc(OCCCN2C[C@@H]3C[C@H]2CN3S(=O)(=O)c2ccccc2)cc1)C1CC1 | – | 19 | – | –
7 | O=C(c1ccc(OCCCN2C[C@@H]3C[C@H]2CN3C(=O)c2ccco2)cc1)C1CC1 | – | 208 | – | –
8 | CCc1ccc(S(=O)(=O)N[C@H]2CCN(CCCOc3ccc(C(=O)C4CC4)cc3)C2)cc1 | 2300 | 4.6 | 330 | –
9 | Cc1ccccc1S(=O)(=O)N[C@H]1CCN(CCCOc2ccc(C(=O)C3CC3)cc2)C1 | 16000 | 11 | 2200 | –
10 | CC(=O)c1ccc(OCCCN2CC[C@H](NC(=O)[C@@H](C)NC(=O)OC(C)(C)C)C2)cc1 | 56000 | 307 | 40000 | –
11 | C[C@@H](NC(=O)N1C[C@@H]2C[C@H]1CN2CCCOc1ccc(C(=O)C2CC2)cc1)C(=O)O | – | 413 | – | –
12 | CC(=O)c1ccc(OCCCN2CC[C@H](NC(=O)[C@@H](N)CO)C2)cc1 | 43000 | 151 | 22000 | –
13 | CC(C)(C)c1ccc(S(=O)(=O)N[C@H]2CCN(CCCOc3ccc(C(=O)C4CC4)cc3)C2)cc1 | 2300 | 5.2 | 730 | –
14 | O=C(c1ccc(OCCCN2C[C@@H]3C[C@H]2CN3C(=O)c2ccccn2)cc1)C1CC1 | – | 191 | – | –
15 | CC(C)(C)OC(=O)NCCC(=O)N1C[C@@H]2C[C@H]1CN2CCCOc1ccc(C(=O)C2CC2)cc1 | – | 71 | – | –
16 | O=C(c1ccc(OCCCN2C[C@@H]3C[C@H]2CN3C(=O)c2ccccc2)cc1)C1CC1 | – | 344 | – | –
17 | CC(=O)c1ccc(OCCCN2CC[C@H](NC(=O)c3cnccn3)C2)cc1 | 10000 | 202 | 5000 | –
18 | CCCCCC(=O)c1ccc(OCCCN2CCN(C(=O)OCC)CC2)cc1 | – | – | – | Ki [7]: 2 nM

The next lines start with results.

Row | Ki [1] [nM] | Ki [2] [nM] | Ki [3] [nM] | SMILES | other results
19 | 9100 | 3 | 1200 | O=C(c1ccc(OCCCN2CC[C@H](NS(=O)(=O)c3ccccc3)C2)cc1)C1CC1 | –
20 | 7400 | – | 3500 | CC(=O)c1ccc(OCCCN2CC[C@H](NC(=O)c3cccnc3)C2)cc1 | –
21 | 14000 | 6 | 2300 | CC(=O)c1ccc(OCCCN2CC[C@H](NS(=O)(=O)c3ccc(C#N)cc3)C2)cc1 | –
22 | 6600 | 2.7 | 1800 | Cc1cccc(S(=O)(=O)N[C@H]2CCN(CCCOc3ccc(C(=O)C4CC4)cc3)C2)c1 | –
23 | 2500 | 3.8 | 290 | O=C(c1ccc(OCCCN2CC[C@H](NS(=O)(=O)c3ccc(Cl)cc3)C2)cc1)C1CC1 | –
24 | 9400 | 2.7 | 1550 | O=C(c1ccc(OCCCN2CC[C@H](NS(=O)(=O)c3ccccc3F)C2)cc1)C1CC1 | –
25 | 9200 | 3.5 | 500 | O=C(c1ccc(OCCCN2CC[C@H](NS(=O)(=O)c3ccc(F)cc3)C2)cc1)C1CC1 | –
26 | 5900 | 1.6 | 1600 | O=C(c1ccc(OCCCN2CC[C@H](NS(=O)(=O)c3cccc(F)c3)C2)cc1)C1CC1 | –
27 | – | 232 | – | C[C@H](NC(=O)N1C[C@@H]2C[C@H]1CN2CCCOc1ccc(C(=O)C2CC2)cc1)C(=O)O | –
28 | 4400 | 2.9 | 1000 | COc1ccc(S(=O)(=O)N[C@H]2CCN(CCCOc3ccc(C(=O)C4CC4)cc3)C2)cc1 | –
29 | 5500 | 4.2 | 380 | Cc1ccc(S(=O)(=O)N[C@H]2CCN(CCCOc3ccc(C(=O)C4CC4)cc3)C2)cc1 | –
30 | 20000 | 4 | 1600 | N#Cc1ccc(S(=O)(=O)N[C@H]2CCN(CCCOc3ccc(C(=O)C4CC4)cc3)C2)cc1 | –
31 | – | 17 | – | O=C(O)CCNC(=O)N1C[C@@H]2C[C@H]1CN2CCCOc1ccc(C(=O)C2CC2)cc1 | –
32 | 75000 | 587 | 46000 | CC(=O)c1ccc(OCCCN2CC[C@H](NC(=O)[C@H](CO)NC(=O)OC(C)(C)C)C2)cc1 | –
33 | 90000 | – | 50000 | CC(=O)c1ccc(OCCCN2CC[C@H](N)C2)cc1 | Ki [4]: 100000 nM; Ki [5]: 676 nM; Ki [6]: 31000 nM
34 | 60000 | 901 | 24000 | CC(=O)c1ccc(OCCCN2CC[C@H](NC(=O)[C@H](C)NC(=O)OC(C)(C)C)C2)cc1 | –
35 | – | 258 | – | O=C(c1ccc(OCCCN2C[C@@H]3C[C@H]2CN3C(=O)c2ccc(F)cc2)cc1)C1CC1 | –
36 | 3600 | 3 | 700 | O=C(c1ccc(OCCCN2CC[C@H](NS(=O)(=O)c3cccc(Cl)c3)C2)cc1)C1CC1 | –
37 | 1500 | 5 | 290 | O=C(c1ccc(OCCCN2CC[C@H](NS(=O)(=O)c3ccc(Br)cc3)C2)cc1)C1CC1 | –
38 | 91000 | 10 | 7100 | Cn1cnc(S(=O)(=O)N[C@H]2CCN(CCCOc3ccc(C(=O)C4CC4)cc3)C2)c1 | –
39 | 37000 | 50 | 4000 | O=C(N[C@H]1CCN(CCCOc2ccc(C(=O)C3CC3)cc2)C1)c1csc(-c2cccnc2)n1 | –
40 | – | 134 | – | O=C(c1ccc(OCCCN2C[C@@H]3C[C@H]2CN3C(=O)C2CCCCC2)cc1)C1CC1 | –
41 | 6200 | 11 | 710 | N#Cc1ccccc1S(=O)(=O)N[C@H]1CCN(CCCOc2ccc(C(=O)C3CC3)cc2)C1 | –
42 | 13000 | 40 | 6100 | CC(=O)c1ccc(OCCCN2CC[C@H](NC(=O)c3ccc(C#N)cc3)C2)cc1 | –
